Experiment [1] concerns Ba/F3 HER2 A775insYVMA. The experiment in a line: Growth inhibition of Ba/F3 cells engineered to overexpress HER2 A775_G776insYVMA (CellTiter-Glo luminescence). Format: cell-based. To be noted: Mus musculus, BaF3, 72 hours, concentrations 1000 to 0.32 nM, read-out: Ba/F3 HER2^YVMA GI50 class. In outline: (§1)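 Ba/F3 cells overexpressing HER2 A775_G776insYVMA (1000–0.32 nM) or wild-type EGFR (10000–8 nM) treated 72 h at 37°C in RPMI/10% FBS. Viability by CellTiter-Glo luminescence; GI50 by nonlinear regression with untreated growth set at 100%.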
On the technique in general: In ATP-based viability assays light output follows the ATP content of the culture.

The test system of experiment [2] is wild-type EGFR overexpressing Ba/F3 cells. The experiment in a line: Growth inhibition of Ba/F3 cells engineered to overexpress wild-type EGFR (CellTiter-Glo luminescence). Format: cell-based. Particulars: Mus musculus, BaF3, 72 hours, concentrations 10000 to 8 nM, read-out: Ba/F3 EGFR^WT GI50 class. The gist of the method:
as §1

The text below walks through data of patent publication EP4782450A1, “NOVEL SKELETAL DERIVATIVE EFFECTIVE FOR HER2 MUTATION, AND PHARMACEUTICAL COMPOSITION COMPRISING SAME” (Hanmi Pharm. Co., Ltd., priority 2023, dated 2025).

Where only a bound is given, the exact number is not on record here.

With `C=CC(=O)N(C)C/C=C/c1ccc2ncnc(Nc3ccc(Cc4ccn5ncnc5c4)c(C)c3)c2n1` [Example 56, (E)-N-(3-(4-((4-([1,2,4]triazolo[1,5-a]pyridin-7-ylmethyl)-3-methylphenyl)amino)pyrido[3,2-d]pyrimidin-6-yl)allyl)-N-methylacrylamide], the GI50 in experiment [1] is below 100 nM; in experiment [2] it was 100 to 1000 nM.
For `C=CC(=O)N(C)C/C=C/c1ccc2ncnc(Nc3ccc(Oc4ccc5ocnc5c4)c(C)c3)c2n1` [Example 57, (E)-N-(3-(4-((4-(benzo[d]oxazol-5-yloxy)-3-methylphenyl)amino)pyrido[3,2-d]pyrimidin-6-yl)allyl)-N-methylacrylamide], the GI50 is below 100 nM in experiment [1] and 100 to 1000 nM in experiment [2].
Taken in the same sequence, the figures for `Cc1cc(Nc2ncnc3ccc(/C=C/CNC(=O)/C=C/[C@H]4CCCN4C)nc23)ccc1Oc1ccc2c(c1)ncn2C` [Example 58, (E)-N-((E)-3-(4-((3-methyl-4-((1-methyl-1H-benzo[d]imidazol-5-yl)oxy)phenyl)amino)pyrido[3,2-d]pyrimidin-6-yl)allyl)-3-((R)-1-methylpyrrolidin-2-yl)acrylamide] were 100 to 1000 nM and 1000 to 5000 nM.
Taken in the same sequence, the figures for `Cc1cc(Nc2ncnc3ccc(/C=C/CNC(=O)/C=C/CN4CCCCC4)nc23)ccc1Oc1ccc2c(c1)ncn2C` [Example 59, (E)-N-((E)-3-(4-((3-methyl-4-((1-methyl-1H-benzo[d]imidazol-5-yl)oxy)phenyl)amino)pyrido[3,2-d]pyrimidin-6-yl)allyl)-4-(piperidin-1-yl)but-2-enamide] were below 100 nM and 1000 to 5000 nM.
As to `Cc1cc(Nc2ncnc3ccc(/C=C/CNC(=O)/C=C/CN4CCOCC4)nc23)ccc1Oc1ccc2c(c1)ncn2C` [Example 60, (E)-N-((E)-3-(4-((3-methyl-4-((1-methyl-1H-benzo[d]imidazol-5-yl)oxy)phenyl)amino)pyrido[3,2-d]pyrimidin-6-yl)allyl)-4-morpholinobut-2-enamide], the GI50 was below 100 nM in experiment [1] and above 5000 nM in experiment [2].
With `Cc1cc(Nc2ncnc3ccc(/C=C/CN(C)C(=O)/C=C/CN4CCCCC4)nc23)ccc1Oc1ccc2c(c1)ncn2C` [Example 61, (E)-N-methyl-N-((E)-3-(4-((3-methyl-4-((1-methyl-1H-benzo[d]imidazol-5-yl)oxy)phenyl)amino)pyrido[3,2-d]pyrimidin-6-yl)allyl)-4-(piperidin-1-yl)but-2-enamide], the GI50 in experiment [1] is below 100 nM; in experiment [2], 1000 to 5000 nM.
Taken in the same sequence, the figures for `Cc1cc(Nc2ncnc3ccc(/C=C/CN(C)C(=O)/C=C/CN4CCOCC4)nc23)ccc1Oc1ccc2c(c1)ncn2C` [Example 62, (E)-N-methyl-N-((E)-3-(4-((3-methyl-4-((1-methyl-1H-benzo[d]imidazol-5-yl)oxy)phenyl)amino)pyrido[3,2-d]pyrimidin-6-yl)allyl)-4-morpholinobut-2-enamide] were 100 to 1000 nM and above 5000 nM.
Taken in the same sequence, the figures for `C=CC(=O)N(C)c1cccc(/C=C/c2ccc3ncnc(Nc4ccc(Oc5ccc6c(c5)ncn6C)c(C)c4)c3n2)c1` [Example 63, (E)-N-methyl-N-(3-(2-(4-((3-methyl-4-((1-methyl-1H-benzo[d]imidazol-5-yl)oxy)phenyl)amino)pyrido[3,2-d]pyrimidin-6-yl)vinyl)phenyl)acrylamide] were 100 to 1000 nM and 1000 to 5000 nM.
On the same counts, the results for `C=CC(=O)Nc1cccc(/C=C/c2ccc3ncnc(Nc4ccc(Oc5ccc6c(c5)ncn6C)c(C)c4)c3n2)c1` [Example 64, (E)-N-(3-(2-(4-((3-methyl-4-((1-methyl-1H-benzo[d]imidazol-5-yl)oxy)phenyl)amino)pyrido[3,2-d]pyrimidin-6-yl)vinyl)phenyl)acrylamide] are 100 to 1000 nM and above 5000 nM.
In the case of `C=CC(=O)N(C)CC#Cc1ccc2ncnc(Nc3ccc(Oc4ccn5ncnc5c4)c(C)c3)c2c1` [Example 65, N-(3-(4-((4-([1,2,4]triazolo[1,5-a]pyridin-7-yloxy)-3-methylphenyl)amino)quinazolin-6-yl)prop-2-yn-1-yl)-N-methylacrylamide], the GI50 in experiment [1] was below 100 nM; in experiment [2], 100 to 1000 nM.
As to `C=CC(=O)N(C)CC#Cc1cnc2ncnc(Nc3ccc(Oc4ccn5ncnc5c4)c(C)c3)c2c1` [Example 66, N-(3-(4-((4-([1,2,4]triazolo[1,5-a]pyridin-7-yloxy)-3-methylphenyl)amino)pyrido[2,3-d]pyrimidin-6-yl)prop-2-yn-1-yl)-N-methylacrylamide], the GI50 in experiment [1] and in experiment [2] was 1000 to 5000 nM throughout.
On to `C=CC(=O)N(C)CC#Cc1cc2c(Nc3ccc(Oc4ccn5ncnc5c4)c(C)c3)ncnc2cn1` [Example 67, N-(3-(4-((4-([1,2,4]triazolo[1,5-a]pyridin-7-yloxy)-3-methylphenyl)amino)pyrido[3,4-d]pyrimidin-6-yl)prop-2-yn-1-yl)-N-methylacrylamide], for which the GI50 in experiment [1] and in experiment [2] was 100 to 1000 nM throughout.
Take `C=CC(=O)N(C)CC#Cc1ccc2ncnc(Nc3ccc(Oc4ccn5ncnc5c4)c(C)c3)c2n1` [Example 68, N-(3-(4-((4-([1,2,4]triazolo[1,5-a]pyridin-7-yloxy)-3-methylphenyl)amino)pyrido[3,2-d]pyrimidin-6-yl)prop-2-yn-1-yl)-N-methylacrylamide]: the GI50 was below 100 nM in experiment [1] and 100 to 1000 nM in experiment [2].
For the compound `C=CC(=O)N(C)CC#Cc1ncc2ncnc(Nc3ccc(Oc4ccn5ncnc5c4)c(C)c3)c2n1` [Example 69, N-(3-(8-((4-([1,2,4]triazolo[1,5-a]pyridin-7-yloxy)-3-methylphenyl)amino)pyrimido[5,4-d]pyrimidin-2-yl)prop-2-yn-1-yl)-N-methylacrylamide], the GI50 in experiment [1] and in experiment [2] was 100 to 1000 nM throughout.
Take `C=CC(=O)N(C)CC#Cc1ccc2ncc(C#N)c(Nc3ccc(Oc4ccn5ncnc5c4)c(C)c3)c2c1` [Example 70, N-(3-(4-((4-([1,2,4]triazolo[1,5-a]pyridin-7-yloxy)-3-methylphenyl)amino)-3-cyanoquinolin-6-yl)prop-2-yn-1-yl)-N-methylacrylamide]: the GI50 in experiment [1] lay within 100 to 1000 nM; in experiment [2], 1000 to 5000 nM.
With `C=CC(=O)N(C)CC#Cc1ccc2ncnc(Nc3ccc(Oc4ccc5c(c4)ncn5C)c(C)c3)c2n1` [Example 71, N-methyl-N-(3-(4-((3-methyl-4-((1-methyl-1H-benzo[d]imidazol-5-yl)oxy)phenyl)amino)pyrido[3,2-d]pyrimidin-6-yl)prop-2-yn-1-yl)acrylamide], the figures for the GI50 in experiment [1] and in experiment [2] were 100 to 1000 nM and 1000 to 5000 nM, respectively.
On the same counts, the results for `C=CC(=O)N(C)CC#Cc1ncc2ncnc(Nc3ccc(Oc4ccc5c(c4)ncn5C)c(C)c3)c2n1` [Example 72] are 100 to 1000 nM and below 100 nM.
Turning to `C=CC(=O)N(C)CC#Cc1cc2c(Nc3ccc(Oc4ccn5ncnc5c4)c(C)c3)ncnc2cc1OC` [Example 73, N-(3-(4-((4-([1,2,4]triazolo[1,5-a]pyridin-7-yloxy)-3-methylphenyl)amino)-7-methoxyquinazolin-6-yl)prop-2-yn-1-yl)-N-methylacrylamide], the GI50 in experiment [1] and in experiment [2] was 1000 to 5000 nM throughout.
For `C=CC(=O)N1CCC[C@@H]1C#Cc1ccc2ncnc(Nc3ccc(Oc4ccn5ncnc5c4)c(C)c3)c2c1` [Example 74, (R)-1-(2-((4-((4-([1,2,4]triazolo[1,5-a]pyridin-7-yloxy)-3-methylphenyl)amino)quinazolin-6-yl)ethynyl)pyrrolidin-1-yl)prop-2-en-1-one], the GI50 in experiment [1] and in experiment [2] was below 100 nM throughout.
Consider `C=CC(=O)N1CCC[C@H]1C#Cc1ccc2ncnc(Nc3ccc(Oc4ccn5ncnc5c4)c(C)c3)c2c1` [Example 75, (S)-1-(2-((4-((4-([1,2,4]triazolo[1,5-a]pyridin-7-yloxy)-3-methylphenyl)amino)quinazolin-6-yl)ethynyl)pyrrolidin-1-yl)prop-2-en-1-one], for which the results for the GI50 in experiment [1] and in experiment [2] were below 100 nM and 100 to 1000 nM, respectively.
On the same counts, the results for `C=CC(=O)N1CCCC[C@@H]1C#Cc1ccc2ncnc(Nc3ccc(Oc4ccn5ncnc5c4)c(C)c3)c2c1` [Example 76, (R)-1-(2-((4-((4-([1,2,4]triazolo[1,5-a]pyridin-7-yloxy)-3-methylphenyl)amino)quinazolin-6-yl)ethynyl)piperidin-1-yl)prop-2-en-1-one] are below 100 nM and 100 to 1000 nM.
Turning to `C=CC(=O)N1CCCC[C@H]1C#Cc1ccc2ncnc(Nc3ccc(Oc4ccn5ncnc5c4)c(C)c3)c2c1` [Example 77, (S)-1-(2-((4-((4-([1,2,4]triazolo[1,5-a]pyridin-7-yloxy)-3-methylphenyl)amino)quinazolin-6-yl)ethynyl)piperidin-1-yl)prop-2-en-1-one], the GI50 in experiment [1] and in experiment [2] was below 100 nM each time.
For the compound `C=CC(=O)N1CC[C@@H]1C#Cc1ccc2ncnc(Nc3ccc(Oc4ccn5ncnc5c4)c(C)c3)c2c1` [Example 78, (R)-1-(2-((4-((4-([1,2,4]triazolo[1,5-a]pyridin-7-yloxy)-3-methylphenyl)amino)quinazolin-6-yl)ethynyl)azetidin-1-yl)prop-2-en-1-one], the values for the GI50 in experiment [1] and in experiment [2] were below 100 nM and 100 to 1000 nM, respectively.
With `C=CC(=O)N1CC[C@H]1C#Cc1ccc2ncnc(Nc3ccc(Oc4ccn5ncnc5c4)c(C)c3)c2c1` [Example 79, (S)-1-(2-((4-((4-([1,2,4]triazolo[1,5-a]pyridin-7-yloxy)-3-methylphenyl)amino)quinazolin-6-yl)ethynyl)azetidin-1-yl)prop-2-en-1-one], the GI50 in experiment [1] and in experiment [2] was 1000 to 5000 nM each time.
